Experimental data taken from PubChem BioAssay AID256 (DTP/NCI, 2004).
Values joined by “and” are separate entries in the source; they are usually repeats but may differ in a detail not shown here. Equal values may be shown once. Inconclusive results and toxic doses are left out. How the source made its calls: active means survival T/C of 150% or more; inactive means T/C below 125% in these data.

Test system: CD2F1 mice, L1210 leukemia ip, survival T/C
Test: NCI In Vivo Anticancer Drug Screen. Data for tumor model L1210 Leukemia (intraperitoneal) in CD2F1 (CDF1) mice
Details: higher = longer survival
Procedure, shortened: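 Vehicle-treated tumor-bearing mice served as controls (C) for compound-treated mice (T). Reported figure is T divided by C.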

[1] = endpoint: mean survival time, dose: 100.0 mg/kg/injection, schedule: Q01DX001 (ip), vehicle: saline with Tween-80
[2] = endpoint: mean survival time, dose: 100.0 mg/kg/injection, schedule: Q01DX009 (ip), vehicle: saline with Tween-80
[3] = endpoint: mean survival time, dose: 200.0 mg/kg/injection, schedule: Q01DX001 (ip), vehicle: saline with Tween-80
[4] = endpoint: mean survival time, dose: 200.0 mg/kg/injection, schedule: Q01DX009 (ip), vehicle: saline with Tween-80
[5] = endpoint: mean survival time, dose: 400.0 mg/kg/injection, schedule: Q01DX001 (ip), vehicle: saline with Tween-80
[6] = endpoint: mean survival time, dose: 400.0 mg/kg/injection, schedule: Q01DX009 (ip), vehicle: saline with Tween-80
[7] = endpoint: mean survival time, dose: 100.0 mg/kg/injection, schedule: Q04DX003 (ip), vehicle: saline
[8] = endpoint: mean survival time, dose: 200.0 mg/kg/injection, schedule: Q04DX003 (ip), vehicle: saline
[9] = endpoint: mean survival time, dose: 400.0 mg/kg/injection, schedule: Q04DX003 (ip), vehicle: saline
[10] = endpoint: mean survival time, dose: 100.0 mg/kg/injection, schedule: Q04DX003 (ip), vehicle: saline with Tween-80
[11] = endpoint: mean survival time, dose: 200.0 mg/kg/injection, schedule: Q04DX003 (ip), vehicle: saline with Tween-80
[12] = endpoint: mean survival time, dose: 400.0 mg/kg/injection, schedule: Q04DX003 (ip), vehicle: saline with Tween-80

Measured: T/C

CCOC(=O)C(C)(C)Oc1ccc(Cl)cc1
inactive: endpoint: mean survival time, dose: 12.5 mg/kg/injection, schedule: Q01DX009 (ip), vehicle: saline with Tween-80 100 % of control and 105 % of control | endpoint: mean survival time, dose: 25.0 mg/kg/injection, schedule: Q01DX009 (ip), vehicle: saline with Tween-80 97 % of control and 98 % of control | endpoint: mean survival time, dose: 50.0 mg/kg/injection, schedule: Q01DX009 (ip), vehicle: saline with Tween-80 103 % of control and 104 % of control | [1] 94 % of control | [2] 100 % of control and 101 % of control and 103 % of control | [3] 91 % of control | [4] 100 % of control and 101 % of control and 102 % of control | [5] 94 % of control | [6] 100 % of control and 104 % of control and 109 % of control

OC1(C(Cl)(Cl)Cl)CCCCC1
inactive: endpoint: mean survival time, dose: 100.0 mg/kg/injection, schedule: Q01DX009 (ip), vehicle: other 101 % of control | endpoint: mean survival time, dose: 200.0 mg/kg/injection, schedule: Q01DX009 (ip), vehicle: other 103 % of control | endpoint: mean survival time, dose: 400.0 mg/kg/injection, schedule: Q01DX009 (ip), vehicle: other 106 % of control

N#CC1CCCC[N-]1.[NH-]CC[N-]CC[NH-].[Pt+4] (configuration not stated)
inactive: endpoint: mean survival time, dose: 12.5 mg/kg/injection, schedule: Q01DX009 (ip), vehicle: water 93 % of control | endpoint: mean survival time, dose: 25.0 mg/kg/injection, schedule: Q01DX009 (ip), vehicle: water 95 % of control | endpoint: mean survival time, dose: 50.0 mg/kg/injection, schedule: Q01DX009 (ip), vehicle: water 97 % of control | endpoint: mean survival time, dose: 100.0 mg/kg/injection, schedule: Q01DX009 (ip), vehicle: water 88 % of control

O=C1c2ccccc2C(=O)c2c(Cl)cc(Cl)cc21
inactive: endpoint: mean survival time, dose: 75.0 mg/kg/injection, schedule: Q01DX001 (ip), vehicle: saline 103 % of control | endpoint: mean survival time, dose: 150.0 mg/kg/injection, schedule: Q01DX001 (ip), vehicle: saline 111 % of control | endpoint: mean survival time, dose: 300.0 mg/kg/injection, schedule: Q01DX001 (ip), vehicle: saline 102 % of control

O=c1cc(NCCCOc2ccccc2)[nH]c(=O)[nH]1
inactive: [1] 98 % of control | [3] 98 % of control | [5] 98 % of control

O=C(CCCCCCCCC(=O)OO)OO (tested in a mixture with another compound)
inactive: [2] 96 % of control

CCOP(=O)(OCC)C1=C(P(=O)(OCC)OCC)C(F)(F)C1(F)F
inactive: endpoint: mean survival time, dose: 9.5 mg/kg/injection, schedule: Q01DX001 (ip), vehicle: other 97 % of control | endpoint: mean survival time, dose: 19.0 mg/kg/injection, schedule: Q01DX001 (ip), vehicle: other 97 % of control | endpoint: mean survival time, dose: 38.0 mg/kg/injection, schedule: Q01DX001 (ip), vehicle: other 91 % of control

NNc1nc2c(=O)[nH]cnc2n1C1OC(CO)C(O)C1O (configuration not stated)
inactive: endpoint: mean survival time, dose: 12.5 mg/kg/injection, schedule: Q01DX005 (ip), vehicle: distilled water + Tween-80 98 % of control | endpoint: mean survival time, dose: 25.0 mg/kg/injection, schedule: Q01DX005 (ip), vehicle: distilled water + Tween-80 98 % of control | endpoint: mean survival time, dose: 50.0 mg/kg/injection, schedule: Q01DX005 (ip), vehicle: distilled water + Tween-80 100 % of control | endpoint: mean survival time, dose: 100.0 mg/kg/injection, schedule: Q01DX005 (ip), vehicle: distilled water + Tween-80 107 % of control | endpoint: mean survival time, dose: 200.0 mg/kg/injection, schedule: Q01DX005 (ip), vehicle: distilled water + Tween-80 104 % of control

CCN1/C(=C/C=C/C=C/c2sc3ccccc3[n+]2CC)Sc2ccccc21
inactive: endpoint: mean survival time, dose: 0.08 mg/kg/injection, schedule: Q01DX009 (ip), vehicle: saline 109 % of control | endpoint: mean survival time, dose: 0.09 mg/kg/injection, schedule: Q01DX009 (ip), vehicle: saline 117 % of control | endpoint: mean survival time, dose: 0.12 mg/kg/injection, schedule: Q01DX009 (ip), vehicle: saline 114 % of control | endpoint: mean survival time, dose: 0.16 mg/kg/injection, schedule: Q04DX003 (ip), vehicle: saline 105 % of control | endpoint: mean survival time, dose: 0.19 mg/kg/injection, schedule: Q01DX009 (ip), vehicle: saline 121 % of control | endpoint: mean survival time, dose: 0.25 mg/kg/injection, schedule: Q04DX003 (ip), vehicle: saline 112 % of control | endpoint: mean survival time, dose: 0.28 mg/kg/injection, schedule: Q01DX009 (ip), vehicle: saline 114 % of control | endpoint: mean survival time, dose: 0.33 mg/kg/injection, schedule: Q04DX002 (ip), vehicle: saline 101 % of control | endpoint: mean survival time, dose: 0.38 mg/kg/injection, schedule: Q04DX003 (ip), vehicle: saline 108 % of control | endpoint: mean survival time, dose: 0.42 mg/kg/injection, schedule: Q01DX009 (ip), vehicle: saline 122 % of control | endpoint: mean survival time, dose: 0.5 mg/kg/injection, schedule: Q04DX002 (ip), vehicle: saline 112 % of control | endpoint: mean survival time, dose: 0.57 mg/kg/injection, schedule: Q04DX003 (ip), vehicle: saline 118 % of control | endpoint: mean survival time, dose: 0.66 mg/kg/injection, schedule: Q01DX001 (ip), vehicle: saline 120 % of control | endpoint: mean survival time, dose: 0.76 mg/kg/injection, schedule: Q04DX002 (ip), vehicle: saline 106 % of control | endpoint: mean survival time, dose: 0.85 mg/kg/injection, schedule: Q04DX003 (ip), vehicle: saline 112 % of control | endpoint: mean survival time, dose: 0.99 mg/kg/injection, schedule: Q01DX001 (ip), vehicle: saline 118 % of control | endpoint: mean survival time, dose: 1.1 mg/kg/injection, schedule: Q04DX002 (ip), vehicle: saline 114 % of control | endpoint: mean survival time, dose: 1.5 mg/kg/injection, schedule: Q01DX001 (ip), vehicle: saline 100 % of control | endpoint: mean survival time, dose: 1.7 mg/kg/injection, schedule: Q04DX002 (ip), vehicle: saline 97 % of control | endpoint: mean survival time, dose: 2.2 mg/kg/injection, schedule: Q01DX001 (ip), vehicle: saline 114 % of control | endpoint: mean survival time, dose: 3.3 mg/kg/injection, schedule: Q01DX001 (ip), vehicle: saline 114 % of control

CN(C)c1ccc(/C=N/NC(=O)c2ccccc2N)cc1
inactive: [2] 92 % of control | [4] 91 % of control | [6] 91 % of control

Nc1cc(=O)[nH]c(=S)n1-c1ccccn1
inactive: [7] 101 % of control | [8] 95 % of control | [9] 97 % of control

O=C(Nc1ccc2c3c(ccc(C(=O)O)c13)CC2)c1ccccc1
inactive: [10] 97 % of control | [11] 95 % of control | [12] 104 % of control

CC1(C)C=CC=C(C(=O)O)C=C1
inactive: [2] 100 % of control | [10] 98 % of control | [4] 92 % of control | [11] 98 % of control | [6] 89 % of control | [12] 94 % of control

COc1c(C)c2c(c3c1CC(=O)O3)C(=O)OC2
inactive: endpoint: mean survival time, dose: 100.0 mg/kg/injection, schedule: Q04DX002 (ip), vehicle: saline with Tween-80 108 % of control | endpoint: mean survival time, dose: 200.0 mg/kg/injection, schedule: Q04DX002 (ip), vehicle: saline with Tween-80 112 % of control | endpoint: mean survival time, dose: 400.0 mg/kg/injection, schedule: Q04DX002 (ip), vehicle: saline with Tween-80 112 % of control

CC(C)(C)C(=O)CC(O)(C(F)(F)F)C(F)(F)F
inactive: [7] 100 % of control | [8] 97 % of control | [9] 100 % of control

CCN(CC)N1C(=O)[N+](CC)(CC)N=C1[O-]
inactive: [7] 102 % of control | [8] 95 % of control | [9] 101 % of control

N#C/C(=C\c1c(O)ccc2ccccc12)c1ccc([N+](=O)[O-])cc1
inactive: endpoint: mean survival time, dose: 66.0 mg/kg/injection, schedule: Q01DX009 (ip), vehicle: saline with Tween-80 88 % of control | [2] 91 % of control and 92 % of control | [10] 91 % of control | endpoint: mean survival time, dose: 150.0 mg/kg/injection, schedule: Q01DX009 (ip), vehicle: saline with Tween-80 100 % of control | [11] 94 % of control | [12] 91 % of control

C1CCC(C2CCCC[N-]2)[N-]C1.CC(C)C([NH-])C(=O)O.[Cl][Pt] (configuration not stated)
inactive: endpoint: median survival time, dose: 10.0 mg/kg/injection, schedule: Q04DX003 (ip), vehicle: saline 101 % of control | endpoint: median survival time, dose: 20.0 mg/kg/injection, schedule: Q04DX003 (ip), vehicle: saline 102 % of control | endpoint: median survival time, dose: 40.0 mg/kg/injection, schedule: Q04DX003 (ip), vehicle: saline 100 % of control | endpoint: median survival time, dose: 80.0 mg/kg/injection, schedule: Q04DX003 (ip), vehicle: saline 94 % of control and 96 % of control | endpoint: median survival time, dose: 160.0 mg/kg/injection, schedule: Q04DX003 (ip), vehicle: saline 97 % of control
